According to ChEMBL document CHEMBL1159265, “Bis(sulfato)-cyclosiphonodictyol A, a new disulfated sesquiterpene-hydroquinone from a deep water collection of the Marine sponge Siphonodictyon coralliphagum” (J Nat Prod, 1995):

Biological target: Leukotriene B4 receptor 1 (Homo sapiens, UniProt Q15722)
Assay: Displacement of [3H]LTB4 from LTB4 receptor in human neutrophils

Sequence of Leukotriene B4 receptor 1 (Q15722 whole entry): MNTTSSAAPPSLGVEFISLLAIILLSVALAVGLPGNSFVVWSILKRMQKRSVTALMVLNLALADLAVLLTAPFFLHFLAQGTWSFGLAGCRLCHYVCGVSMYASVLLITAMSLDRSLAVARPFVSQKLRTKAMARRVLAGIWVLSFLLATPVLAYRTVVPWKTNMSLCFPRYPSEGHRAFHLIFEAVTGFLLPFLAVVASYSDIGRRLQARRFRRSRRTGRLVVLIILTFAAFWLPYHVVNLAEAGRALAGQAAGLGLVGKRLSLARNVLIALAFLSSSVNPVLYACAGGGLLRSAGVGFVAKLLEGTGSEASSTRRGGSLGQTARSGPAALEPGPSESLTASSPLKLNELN

- IC50: 44.5 µM
Structure (SMILES): CC1(C)CCC[C@]2(C)[C@H]3Cc4c(OS(=O)(=O)O)ccc(OS(=O)(=O)O)c4CO[C@]3(C)CC[C@@H]12
